Assay results as given in patent publication US20080103212A1, “Treatment of fruit in storage facility with solid derived diphenylamine anti scald agent” (priority 2006, published 2008).

Columns and labels:
[1] = tested on: Granny Smith and Red Delicious apples; test: Scald and decay observation of DPA-fogged apples in cold air storage (Example 1); assay type: in vivo
Source text: DPA was applied to Granny Smith and Red Delicious apples at a research facility. Solid, technical grade (99.5%) DPA was melted and applied to the apples in a storage facility as an aerosol using a commercial thermal fogger equipment, provided by Custom Chemical of Warden Wash., as described above. The apples were loaded into 20 bins, of 900 pounds each, of each variety and stacked in a three by three arrangement. The bins were stacked: five high in all of the back rows, in a 5-4-5 high arrangement in the center row and in a 4-3-4 arrangement in the front row. DPA was applied at a rate of 15 grams per ton. This represents a 50% excess to account for any loss in void spaces. The thermal fogging equipment was placed in the hallway of the storage facility with two 10 foot lengths of flex pipe attached to a porthole in the door of the sealed storage room. Fumigating started and reached optimum saturation in 15 minutes. The porthole was then sealed and the room was left alone for 16 hours. Application of the aerosol DPA began with the storage facility fans off. The fans were turned on after 10 minutes of aerosol DPA application and run at ambient temperatures for 12-16 hours. The morning after application the room was unsealed the apples, bins, storage walls and fan blades were checked for anomalies such as DAP sublimation as crystals and possible phytotoxicity on the fruit. […] After the initial inspection the bins were arranged outside of the building so samples could be taken. Each bin was marked as to its location in the room and samples were marked with those same ID codes. Samples were taken from the top of each bin and also by digging into the center of the bin. Each bin was effectively sampled two times. These samples were tested for DPA residual by gas chromatography. The bins were than transferred to a cold air storage facility and observed for five months. Periodically samples were collected for DPA residue, scald and decay analysis as describe below. After 6 weeks additional samples were taken and tested for DPA residual by gas chromatography. These samples were taken like the first set, eight apples from the top of the bin and then digging into the center for eight apples. After two months in common storage four bins were set out for evaluation, two Granny Smith and two Red Delicious. […] The next samples were taken one month later. […] One month later samples were taken in the same fashion as before, top and middle of the bins. Because a fungicide was not used, penicillium rot was showing in about 8% of the Red Delicious samples. The Granny Smith samples were starting to show some decay, roughly 1⁄2 percent. […] The next to last sample was taken about 6 weeks later. Scald was not a problem. […] The positive impact of the treatment was especially evident in the Granny Smith apples which are more susceptible to scald. The decay incidences were unchanged. As stated in the earlier, there was generally a slightly higher decay rate in Red Delicious compared to prior art drench type applications, which typically use one or a combination of two fungicides. The decay in this test was attributed to the lack of fungicide use in this trial.

[2] = tested on: Granny Smith and Red Delicious apples; test: Inspection for phytotoxicity on the fruit the morning after DPA aerosol application (Example 1); assay type: in vivo; conditions: 15 grams per ton DPA aerosol
Source text: DPA was applied to Granny Smith and Red Delicious apples at a research facility. Solid, technical grade (99.5%) DPA was melted and applied to the apples in a storage facility as an aerosol using a commercial thermal fogger equipment, provided by Custom Chemical of Warden Wash., as described above. The apples were loaded into 20 bins, of 900 pounds each, of each variety and stacked in a three by three arrangement. The bins were stacked: five high in all of the back rows, in a 5-4-5 high arrangement in the center row and in a 4-3-4 arrangement in the front row. DPA was applied at a rate of 15 grams per ton. This represents a 50% excess to account for any loss in void spaces. The thermal fogging equipment was placed in the hallway of the storage facility with two 10 foot lengths of flex pipe attached to a porthole in the door of the sealed storage room. Fumigating started and reached optimum saturation in 15 minutes. The porthole was then sealed and the room was left alone for 16 hours. Application of the aerosol DPA began with the storage facility fans off. The fans were turned on after 10 minutes of aerosol DPA application and run at ambient temperatures for 12-16 hours. The morning after application the room was unsealed the apples, bins, storage walls and fan blades were checked for anomalies such as DAP sublimation as crystals and possible phytotoxicity on the fruit.

SMILES: c1ccc(Nc2ccccc2)cc1 [DPA, diphenylamine]
- Scald ([1]; after two months in common storage, two Granny Smith and two Red Delicious bins): No Scald was apparent in any bin
- Scald ([1]; final assessment, approximately two weeks after the next to last sample): no additional scald
- Scald ([1]; next to last sample, about 6 weeks later, all bins): no scald found in any bin
- Scald ([1]; one month after the two-month evaluation, both varieties): Scald was not showing in either variety
- Scald ([1]; two months after the two-month evaluation, both varieties): Scald was not apparent in either variety
- possible phytotoxicity on the fruit [2]: None was found
